# Results taken from the supplement of paper PMC10307832.
# Tests used:
# Assay in all cases: relative viability (nuclei count vs DMSO), 5 days (fraction); higher = more cells survive
# [1] = compound: CN(c1ncccc1CNc1nc(Nc2ccc3c(c2)CC(=O)N3)ncc1C(F)(F)F)S(C)(=O)=O + Nc1nc2[nH]cc(CCc3ccc(C(=O)N[C@@H](CCC(=O)O)C(=O)O)cc3)c2c(=O)[nH]1 [Pemetrexed] (partner 0.2 µM)
# Method in brief: (§1)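 Relative viability equals treated-well nuclei counts divided by vehicle-well nuclei counts. Counts came from 4× images of lung cancer cell lines grown in 1536-well plates for 5 days after pin-tool dosing on the day after seeding. Dosing used one drug alone or a fixed anchor-drug dose plus five library-drug doses (not always all listed) in √10 steps, and values are medians of duplicate plates.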
# [2] = compound: CN(c1ncccc1CNc1nc(Nc2ccc3c(c2)CC(=O)N3)ncc1C(F)(F)F)S(C)(=O)=O + Cc1nc(NC(=O)N2CCC[C@H]2C(N)=O)sc1-c1ccnc(C(C)(C)C(F)(F)F)c1 [Alpelisib] (partner 2 µM)
# Method in brief: as §1
# [3] = compound: CN(c1ncccc1CNc1nc(Nc2ccc3c(c2)CC(=O)N3)ncc1C(F)(F)F)S(C)(=O)=O + CC(C)C[C@H](NC(=O)[C@H](Cc1ccccc1)NC(=O)c1cnccn1)B(O)O [Bortezomib] (partner 0.002 µM)
# Method in brief: as §1
# [4] = compound: CN(c1ncccc1CNc1nc(Nc2ccc3c(c2)CC(=O)N3)ncc1C(F)(F)F)S(C)(=O)=O + O=C(c1cc(Cc2n[nH]c(=O)c3ccccc23)ccc1F)N1CCN(C(=O)C2CC2)CC1 [Olaparib] (partner 8 µM)
# Method in brief: as §1
Cell Line,relative viability ([1]; first compound 0.01 µM),relative viability ([1]; first compound 0.03162 µM),relative viability ([1]; first compound 0.1 µM),relative viability ([1]; first compound 0.3162 µM),relative viability ([1]; first compound 1 µM),relative viability ([2]; first compound 0.01 µM),relative viability ([2]; first compound 0.03162 µM),relative viability ([2]; first compound 0.1 µM),relative viability ([2]; first compound 0.3162 µM),relative viability ([2]; first compound 1 µM),relative viability ([3]; first compound 0.01 µM),relative viability ([3]; first compound 0.03162 µM),relative viability ([3]; first compound 0.1 µM),relative viability ([3]; first compound 0.3162 µM),relative viability ([3]; first compound 1 µM),relative viability ([4]; first compound 0.01 µM),relative viability ([4]; first compound 0.03162 µM),relative viability ([4]; first compound 0.1 µM),relative viability ([4]; first compound 0.3162 µM),relative viability ([4]; first compound 1 µM)
HCC-44,0.668,0.622,0.639,0.65,0.611,0.872,0.792,0.789,0.824,0.778,0.963,0.931,0.913,0.829,0.824,0.959,0.978,0.917,0.875,0.904
HCC-78,0.907,0.922,0.921,0.922,0.929,0.368,0.407,0.285,0.361,0.31,0.567,0.587,0.502,0.462,0.422,0.856,0.999,0.783,0.797,0.714
HCC-366,0.219,0.172,0.164,0.172,0.186,0.35,0.471,0.455,0.389,0.309,0.927,1.24,1.09,1.02,1.06,0.351,0.376,0.347,0.292,0.352
HCC-827,0.248,0.269,0.257,0.294,0.313,1.02,1.07,1.03,1.01,0.942,1.1,1.06,1.09,1.02,1.05,0.635,0.557,0.647,0.707,0.705
HOP-62,0.34,0.337,0.289,0.418,0.28,0.909,1.25,1.06,0.84,0.772,0.839,0.673,0.939,0.803,0.911,0.526,0.421,0.326,0.363,0.384
LC-2-ad,0.283,0.3,0.274,0.285,0.274,0.789,0.714,0.883,0.902,0.877,1.04,1,1.06,0.961,0.799,0.732,0.703,0.703,0.664,0.596
LCLC-97TM1,0.149,0.164,0.125,0.133,0.13,–,0.246,0.229,0.246,0.161,1.04,0.74,0.439,0.559,0.526,0.45,0.414,0.401,0.291,0.261
LCLC-103H,0.476,0.474,0.488,0.541,0.463,1.04,0.982,0.868,0.872,0.897,1.13,1.05,1.18,0.937,1.02,0.724,0.742,0.78,0.693,0.669
LOU-NH91,0.423,0.368,0.375,0.382,0.338,0.75,0.792,0.703,0.771,0.762,0.497,0.47,0.482,0.482,0.459,0.888,0.92,0.883,0.972,0.858
LU99A,0.25,0.156,0.184,0.203,0.178,0.48,0.62,0.525,0.588,0.577,1.15,1.26,1.09,1.43,1.22,0.26,0.305,0.302,0.261,0.236
LXF-289,1.03,0.829,0.864,0.804,0.871,1.05,1.07,1.07,0.988,0.947,1.05,1.01,0.991,0.989,0.978,1.1,1.21,1.04,1.11,1.02
NCI-H23,0.691,0.618,0.779,0.62,0.605,0.668,0.84,0.727,0.692,0.56,1.22,1.38,1.09,1.08,1.03,0.337,0.345,0.389,0.319,0.306
NCI-H322M,0.615,0.606,0.651,0.635,0.714,0.821,0.79,–,0.902,0.96,1.26,1.41,–,1.38,1.44,0.741,0.774,0.739,0.878,0.832
NCI-H441,0.222,0.262,0.244,0.292,0.262,0.624,0.65,0.557,0.793,0.614,0.68,0.859,0.36,0.542,0.377,0.633,0.592,0.466,0.486,0.408
NCI-H460,0.0683,0.0581,0.0611,0.0605,0.0728,0.519,0.577,0.487,0.443,0.508,1.18,1.39,1.13,1.07,1.13,0.443,0.573,0.464,0.464,0.396
NCI-H520,0.609,0.924,0.632,0.768,0.705,0.985,0.894,0.829,0.96,1,0.695,0.513,0.489,1.13,0.635,0.325,0.318,0.35,0.394,0.423

Cell Line,relative viability ([1]; first compound 0.01 µM),relative viability ([1]; first compound 0.03162 µM),relative viability ([1]; first compound 0.1 µM),relative viability ([1]; first compound 0.3162 µM),relative viability ([1]; first compound 1 µM),relative viability ([2]; first compound 0.01 µM),relative viability ([2]; first compound 0.03162 µM),relative viability ([2]; first compound 0.1 µM),relative viability ([2]; first compound 0.3162 µM),relative viability ([2]; first compound 1 µM),relative viability ([3]; first compound 0.01 µM),relative viability ([3]; first compound 0.03162 µM),relative viability ([3]; first compound 0.1 µM),relative viability ([3]; first compound 0.3162 µM),relative viability ([3]; first compound 1 µM),relative viability ([4]; first compound 0.01 µM),relative viability ([4]; first compound 0.03162 µM),relative viability ([4]; first compound 0.1 µM),relative viability ([4]; first compound 0.3162 µM),relative viability ([4]; first compound 1 µM)
NCI-H596,0.425,0.466,0.503,0.469,0.605,0.58,0.48,0.482,0.48,0.392,0.793,0.973,0.93,1.1,1.28,0.634,0.655,0.664,0.674,0.723
NCI-H647,0.192,0.163,0.167,0.178,0.17,1.09,0.919,1.14,1.02,1.17,0.934,1.52,1.04,0.931,0.886,0.528,0.494,0.708,0.597,0.488
NCI-H650,0.884,0.935,0.826,1.04,0.621,1.01,1.23,0.945,0.832,0.725,0.69,0.846,0.843,0.692,0.649,0.372,0.376,0.389,0.367,0.358
NCI-H661,0.869,0.941,0.885,0.832,0.833,0.817,0.695,0.546,0.85,0.5,0.928,1.06,0.717,0.837,1.04,0.727,0.85,0.74,0.771,0.7
NCI-H838,0.247,0.258,0.247,0.219,0.238,0.961,1.17,1.01,0.862,0.705,0.767,0.923,0.88,0.942,0.598,0.736,0.809,0.725,0.55,0.43
NCI-H1355,1.02,0.981,0.993,1.02,0.973,0.882,0.945,0.797,0.801,0.696,1.29,1.28,1.14,1.14,1.07,0.7,0.784,0.713,0.691,0.669
NCI-H1437,0.332,0.335,0.33,0.347,0.398,0.973,1.13,1.05,0.941,0.788,0.612,0.462,0.527,0.514,0.405,0.63,0.633,0.59,0.583,0.466
NCI-H1651,0.585,0.593,0.558,0.575,0.579,0.992,1,0.873,0.899,0.916,0.936,1.04,0.939,0.885,0.9,0.187,0.172,0.204,0.183,0.197
NCI-H1666,0.877,0.82,0.805,0.78,0.787,1.11,0.72,0.877,0.79,0.686,0.887,0.678,0.668,0.708,0.589,0.671,0.755,0.702,0.744,0.706
NCI-H1734,0.421,0.379,0.395,0.421,0.439,0.665,0.778,0.666,0.631,0.641,1.06,1.1,0.996,0.857,0.949,0.586,0.677,0.614,0.594,0.596
NCI-H1755,0.478,0.451,0.426,0.398,0.487,0.904,0.946,0.94,0.82,0.848,0.985,0.967,0.983,0.849,0.826,0.909,0.904,0.83,0.791,0.839
NCI-H1792,0.903,0.995,0.922,0.752,0.867,0.661,0.68,0.654,0.695,0.728,1.02,0.999,0.83,0.924,0.941,0.414,0.386,0.691,0.495,0.386
NCI-H1915,0.528,0.569,0.455,0.517,0.538,1.07,1.1,1.03,1.05,1.02,0.988,1.05,1.01,0.888,0.963,0.272,0.241,0.262,0.264,0.285
NCI-H1975,0.296,0.283,0.275,0.296,0.288,0.66,0.592,0.611,0.67,0.59,0.423,0.449,0.44,0.395,0.276,0.799,0.873,0.821,0.832,0.7
NCI-H1993,0.584,0.593,0.538,0.641,0.572,0.739,0.632,0.612,0.663,0.674,0.993,1.22,1.11,1.04,0.907,1.13,0.977,1,1.1,0.92
NCI-H2009,1.03,1,0.923,1.01,0.948,1.12,1.21,1.17,1.17,1.1,1.32,1.04,1.02,0.991,0.955,0.651,0.707,0.684,0.681,0.679
